In patent US9975881B2, “Compound” (ASTRAZENECA AB, priority 2011, dated 2018):

What was measured:
[1] = Human hepatic intrinsic clearance (CLint) from human hepatocyte incubations; type: in vitro ADME; conditions: cryopreserved human hepatocytes in suspension, 1×10^6 cells/ml, 1 μM compound, no HSA, pH 7.4
Excerpt: Measurement of Human Hepatic Intrinsic Clearance (CLint)
For the majority of drugs, a large component of their plasma clearance is contributed by hepatic metabolism. Intrinsic clearance (CLint) is a measure of the potential of a compound to undergo metabolism and can be related to hepatic clearance in vivo from a consideration of plasma protein binding and liver blood flow. Therefore, CLint may be used as a key parameter in predicting the half-life of a compound in humans. […]
An aliquot of cell suspension (0.2 mL) was diluted with 0.2 ml protein-free suspension buffer. […] The cells were then counted (central square only) using an inverted microscope, viable cells being able to exclude the dye and non-viable cells being stained. The percentage of viable cells in the preparation was calculated thus:
The concentration of viable cells was calculated: Viable cells ml^−1=Viable cell count×10^4×3×50 […]
At appropriate time points (e.g. 5, 15, 30, 45, 60, 75, 90 and 120 min), aliquots (40 μl) were taken out of the incubation mix and added to 3 volumes of methanol to terminate the reactions and denature the hepatocytes. […] The supernatants were transferred to micro titre plates and analysed by HPLC-MSMS using the following method as a suitable starting point: […]

[2] = Dog half-life (measured), in vivo pharmacokinetics; conditions: male, 1 mg/kg; elimination half-life in plasma, intravenous 30 minute infusion, beagle dog, mean of a minimum of two dogs
Excerpt: The following describes the methods used to obtain in vivo pharmacokinetic parameters in the male beagle dog. It is applicable for use with any compound but may need modification based on such parameters as solubility, assay sensitivity, anticipated clearance and half-life, when the default formulation, dose level or sampling intervals may be inappropriate. The method described here represents a standard approach from which justified and documented modifications can be made.
A standard dose solution of 1 mg·mL^−1 was prepared. The recommended dose vehicle (if the compound was not sufficiently soluble in isotonic saline) was 10%/o DMSO:90% sterile water or saline with pH adjustment using 1 M HCl or NaOH. […]
Blood samples (˜1 ml) were taken into EDTA treated sampling tubes and plasma was prepared by centrifugation (3 minutes at 13000 rpm) soon after sample collection. Samples were taken at pre determined times over 24 hours (e.g. 0, 5, 15, 30, 35, 45, 60, 90, 120, 180, 240, 300, 360, 420, 720, 1440 minutes). The concentration of the analyte(s) was quantitatively determined in plasma by mass spectrometry. […]
To each of the test samples, dose tests, standards and QCs 100 μL (90 μl for dose tests, standards and QCs) of methanol was added followed by 100 μl of internal standard. […] Aliquots (120 μL) of each sample were transferred into a microtitre plate ready for analysis via HPLC/MS-MS. […]

hepatocyte CLint at 1 μM [1]: 2.9 µL/min/1e6 cells | half-life [2]: 222 min
Compound: CC1CN(S(=O)(=O)Nc2cc(O[C@H](C)[C@@H](O)CO)nc(SCc3ccc(F)cc3)n2)C1 [Example 1, N-(6-((2R,3S)-3,4-Dihydroxybutan-2-yloxy)-2-(4-fluorobenzylthio)pyrimidin-4-yl)-3-methylazetidine-1-sulfonamide]
